The term IC50 denotes the point on the concentration scale where inhibition reaches its midpoint. A high value points to weaker potency. Usually melting point stands for the temperature, or range, at which the solid turns liquid. The inhibition is the share of the control response that was lost under treatment.

The values below come from paper PMC6150379, “Novel Triazole Hybrids of Betulin: Synthesis and Biological Activity Profile” (Molecules : A Journal of Synthetic Chemistry and Natural …, 2017).

Structures are written as SMILES.

Data set [1] deals with T47D (human ductal carcinoma). The experiment in a line: Cytotoxic activity, WST-1 assay. It counts as cell-based. As to conditions: for IC50 / IC50 ± SD: 72 h, Neg = negative in the concentration used. Background: Tetrazolium assays rely on reduction of a dye to a coloured formazan, in cell work by metabolically active cells.
The subject of data set [2] is MCF-7 (human adenocarcinoma). The experiment in a line: Cytotoxic activity, WST-1 assay. The data set is classed as cell-based. As to conditions: MCF-7, 72 h, Neg = negative in the concentration used.
Data set [3] relates to SNB-19 (glioblastoma). Put plainly: Cytotoxic activity, WST-1 assay. The data set is classed as cell-based, human. Conditions: SNB-19, 72 h, Neg = negative in the concentration used.
The test system of data set [4] is Colo-829 (human malignant melanoma). Put plainly: Cytotoxic activity, WST-1 assay. It counts as cell-based. As to conditions: Colo-829, 72 h, Neg = negative in the concentration used.
Data set [5] deals with C-32 (human amelanotic melanoma). The experiment in a line: Cytotoxic activity, WST-1 assay. The data set is classed as cell-based. As to conditions: C-32, 72 h, Neg = negative in the concentration used.
Data set [6] has as its system SKOV-3 human ovarian cancer cell line. Put plainly: Inhibition of tumor cell proliferation (MTT). As to conditions: SK-OV-3, 96 h, read-out: Max. Inhibition (% of Control).
Protocol: Antiproliferative activities of the compounds were measured by the MTT assay using A549 cells and a human ovarian cancer cell line SKOV-3 (adenocarcinoma ATCC® HTB77™). A total of 2 × 10^3 cells in DMEM medium supplemented with 5% FBS were placed in each well of a 96-well flat-bottom plate. After 24 h of incubation at 37 °C in 5% CO2, the growth medium was replaced by media containing different concentrations of the derivatives. Control cultures received cisplatin 0.1–10 μg/mL, and blank wells contained 100 μL of growth medium with no cells. After 96 h of incubation, cell proliferation was determined by the colorimetric MTT assay (570 nm) reading for each concentration compared with the control. At least three replicates for each sample were used to determine the cell proliferation.

As for `N.N.[Cl][Pt][Cl]` [Cisplatin, reference compound], the IC50 is 24.9 ± 1.1 µM in data set [1]; 5.5 ± 1 µM in data set [2]; 2.3 ± 0.05 µM in data set [3]; 16.8 ± 1.7 µM in data set [4]; 12.3 ± 2.1 µM in data set [5].
The compound `C=C(C)C1CC[C@]2(COC(=O)c3cn(Cc4ccccc4)nn3)CC[C@]3(C)C(CCC4[C@@]5(C)CC[C@H](O)C(C)(C)C5CC[C@]43C)C12` (stereo partly drawn) [Compound 5a, 28-O-(1-Benzyl-1H-1,2,3-triazol-4-yl)carbonylbetulin] returned a melting point of 169 to 171 °C. This compound returned an IC50 in data set [1] (Homo sapiens) of 10.5 ± 0.09 µM. Half-maximal inhibition in data set [2] (Homo sapiens, MCF7) (IC50) required 58.8 ± 1.5 µM. For the same compound, the midpoint of inhibition in data set [3] (Homo sapiens), the IC50, lay at 96.2 ± 1.2 µM. In data set [4] (Homo sapiens), this compound returned an IC50 of 78.5 ± 8.3 µM. Also, in data set [5], the “IC50 ± SD” value was “Neg”. In addition, the inhibition at 25 µg/mL in data set [6] worked out at 40%.
`C=C(C)C1CC[C@]2(COC(=O)c3cn(Cc4ccc(F)cc4)nn3)CC[C@]3(C)C(CCC4[C@@]5(C)CC[C@H](O)C(C)(C)C5CC[C@]43C)C12` (stereo partly drawn) [Compound 5b, 28-O-[1-(4-Fluorobenzyl)-1H-1,2,3-triazol-4-yl]carbonylbetulin]: the melting point fell in the range of 144 to 147 °C. Half-maximal inhibition in data set [1] (Homo sapiens) (IC50) required 8.5 ± 0.02 µM. Further, the “IC50 ± SD” value in data set [2] is reported as “Neg”. In addition, it took 66.1 ± 0.7 µM to reach half-maximal inhibition in data set [3] (Homo sapiens) (IC50). In addition, the IC50 in data set [4] (Homo sapiens) worked out at 129 ± 7.7 µM. Further, in data set [5], the “IC50 ± SD” value is reported as “Neg”. Further, the inhibition at 10 µg/mL in data set [6] is 40%.
In turn, `C=C(C)C1CC[C@]2(COC(=O)c3cn(Cc4ccc(C#N)cc4)nn3)CC[C@]3(C)C(CCC4[C@@]5(C)CC[C@H](O)C(C)(C)C5CC[C@]43C)C12` (stereo partly drawn) [Compound 5c, 28-O-[1-(4-Cyanobenzyl)-1H-1,2,3-triazol-4-yl]carbonylbetulin] came in with a melting point of 225 to 228 °C. The compound further came in with an IC50 in data set [1] (Homo sapiens) of 1.4 ± 0.01 µM. For the same compound, the “IC50 ± SD” value in data set [2] is reported as “Neg”. In data set [3] (Homo sapiens), this compound yielded an IC50 of 0.7 ± 0.08 µM. Besides, the IC50 in data set [4] (Homo sapiens) was found to be 9.7 ± 0.1 µM. Besides, in data set [5], the “IC50 ± SD” value is “Neg”.
On to `C=C(C)C1CC[C@]2(COC(=O)c3cn(CC(=O)OCC)nn3)CC[C@]3(C)C(CCC4[C@@]5(C)CC[C@H](O)C(C)(C)C5CC[C@]43C)C12` (stereo partly drawn) [Compound 5g, 28-O-(1-Ethylacetyl-1H-1,2,3-triazol-4-yl)carbonylbetulin], for which the melting point was 176 to 181 °C. The same compound registered an IC50 in data set [1] (Homo sapiens) of 135 ± 2.6 µM. Besides, in data set [2], the “IC50 ± SD” value is reported as “Neg”. Besides, the IC50 in data set [3] (Homo sapiens) turned out to be 92.3 ± 0.9 µM. In data set [4] (Homo sapiens), half-maximal inhibition (IC50) required 11.4 ± 0.2 µM. Besides, in data set [5], the “IC50 ± SD” value is given as “Neg”.
As for `C=C(C)C1CC[C@]2(COC(=O)c3cn(CCCN)nn3)CC[C@]3(C)C(CCC4[C@@]5(C)CC[C@H](O)C(C)(C)C5CC[C@]43C)C12` (stereo partly drawn) [Compound 5i, 28-O-[1-(3-Aminopropyl)-1H-1,2,3-triazol-4-yl]carbonylbetulin], the melting point lay within 156 to 160 °C. The compound further displayed a half-maximal inhibitory concentration (IC50) in data set [1] (Homo sapiens) of 3.63 ± 0.3 µM. The IC50 in data set [2] (Homo sapiens, MCF7) amounted to 6.94 ± 0.8 µM. Besides, in data set [3] (Homo sapiens), the IC50 was found to be 0.9 ± 0.03 µM. In addition, it took 0.6 ± 0.13 µM to reach half-maximal inhibition in data set [4] (Homo sapiens) (IC50). In data set [5] (Homo sapiens), this compound came in with an IC50 of 7.9 ± 0.9 µM.
`C=C(C)C1CC[C@]2(COC(=O)c3cn(C(C(=O)O)C(C)C)nn3)CC[C@]3(C)C(CCC4[C@@]5(C)CC[C@H](O)C(C)(C)C5CC[C@]43C)C12` (stereo partly drawn) [Compound 5k] gave a melting point of 293 to 297 °C. Also, in data set [1] (Homo sapiens), the IC50 was determined as 7.2 ± 0.2 µM. The half-maximal inhibitory concentration (IC50) in data set [2] (Homo sapiens, MCF7) stood at 37.2 ± 0.7 µM. The same compound yielded an IC50 in data set [3] (Homo sapiens) of 6.3 ± 0.9 µM. Also, the IC50 in data set [4] (Homo sapiens) turned out to be 8.7 ± 0.5 µM. For the same compound, the half-maximal inhibitory concentration (IC50) in data set [5] (Homo sapiens) worked out at 46.9 ± 2.5 µM.
As to `C=C(C)C1CC[C@]2(COC(=O)c3cn(Cc4ccccc4)nn3)CC[C@]3(C)C(CCC4[C@@]5(C)CC[C@H](OC(=O)c6cn(Cc7ccccc7)nn6)C(C)(C)C5CC[C@]43C)C12` (stereo partly drawn) [Compound 6a, 3,28-O,O’-Di[(1-benzyl-1H-1,2,3-triazol-4-yl)carbonyl]betulin], the melting point is 117 to 120 °C. For the same compound, the “IC50 ± SD” value in data set [1] is listed as “Neg”. For the same compound, the “IC50 ± SD” value in data set [2] was “Neg”. In data set [3] (Homo sapiens), this compound registered an IC50 of 24.4 ± 1.3 µM. This compound returned a concentration for half-maximal inhibition (IC50) in data set [4] (Homo sapiens) of 80.7 ± 1.8 µM. Moreover, the “IC50 ± SD” value in data set [5] was “Neg”.
Turning to `C=C(C)C1CC[C@]2(COC(=O)c3cn(Cc4ccc(F)cc4)nn3)CC[C@]3(C)C(CCC4[C@@]5(C)CC[C@H](OC(=O)c6cn(Cc7ccc(F)cc7)nn6)C(C)(C)C5CC[C@]43C)C12` (stereo partly drawn) [Compound 6b, 3,28-O,O’-Di[1-(4-fluorobenzyl-1H-1,2,3-triazol-4-yl)carbonyl]betulin], the melting point was 155 to 158 °C. In data set [1] (Homo sapiens), this compound yielded an IC50 of 0.05 ± 0.01 µM. The “potency relative to cisplatin” value in data set [1] (ratio of IC50 values) is recorded as 500 fold. Besides, half-maximal inhibition in data set [2] (Homo sapiens, MCF7) (IC50) required 0.09 ± 0.01 µM. The IC50 in data set [3] (Homo sapiens) is 0.08 ± 0.01 µM. Moreover, the “IC50 ± SD” value in data set [4] is “Neg”. Also, in data set [5], the “IC50 ± SD” value is “Neg”.
Consider `C=C(C)C1CC[C@]2(COC(=O)c3cn(Cc4ccc(C#N)cc4)nn3)CC[C@]3(C)C(CCC4[C@@]5(C)CC[C@H](OC(=O)c6cn(Cc7ccc(C#N)cc7)nn6)C(C)(C)C5CC[C@]43C)C12` (stereo partly drawn) [Compound 6c, 3,28-O,O’-Di[1-(4-cyanobenzyl-1H-1,2,3-triazol-4-yl)carbonyl]betulin], for which the IC50 was found to be 1.1 ± 0.01 µM in data set [1] (Homo sapiens); 60.7 ± 0.6 µM in data set [2] (Homo sapiens, MCF7); 0.06 ± 0.01 µM in data set [3] (Homo sapiens). For the same compound, the “IC50 ± SD” value in data set [4] and in data set [5] was “Neg” in each case.
Compound `C=C(C)C1CC[C@]2(COC(=O)c3cn(CSc4ccccc4)nn3)CC[C@]3(C)C(CCC4[C@@]5(C)CC[C@H](OC(=O)c6cn(CSc7ccccc7)nn6)C(C)(C)C5CC[C@]43C)C12` (stereo partly drawn) [Compound 6d, 3,28-O,O’-Di[(1-phenylthiomethyl-1H-1,2,3-triazol-4-yl)carbonyl]betulin] gave a melting point of 127 to 131 °C. The compound further yielded an IC50 in data set [1] (Homo sapiens) of 0.9 ± 0.05 µM. In addition, the IC50 in data set [2] (Homo sapiens, MCF7) was found to be 0.9 ± 0.08 µM. The same compound registered an IC50 in data set [3] (Homo sapiens) of 0.5 ± 0.02 µM. The midpoint of inhibition in data set [4] (Homo sapiens), the IC50, lay at 103 ± 4.7 µM. The IC50 in data set [5] (Homo sapiens) came to 100 ± 2.8 µM.
Compound `C=C(C)C1CCC2(COC(=O)c3cn(C4CC(n5cc(C)c(=O)[nH]c5=O)OC4CO)nn3)CCC3(C)C(CCC4C5(C)CCC(OC(=O)c6cn(C7CC(n8cc(C)c(=O)[nH]c8=O)OC7CO)nn6)C(C)(C)C5CCC43C)C12` (stereo not drawn) [Compound 6e, 3,28-O,O’-Di[1-(3′-deoxythymidine-5′-yl-1H-1,2,3-triazol-4-yl)carbonyl]betulin] came in with a melting point of 224 to 227 °C. Moreover, in data set [1], the “IC50 ± SD” value was “total decay of cytotoxic effect and Neg”. The “IC50 ± SD” value in data set [2] was “total decay of cytotoxic effect and Neg”. For the same compound, the “IC50 ± SD” value in data set [3] was “total decay of cytotoxic effect and Neg”. The “IC50 ± SD” value in data set [4] is “total decay of cytotoxic effect and Neg”. The “IC50 ± SD” value in data set [5] is “total decay of cytotoxic effect and Neg”.
As to `C=C(C)C1CC[C@]2(COC(=O)c3cn(CC(=O)OCC)nn3)CC[C@]3(C)C(CCC4[C@@]5(C)CC[C@H](OC(=O)c6cn(CC(=O)OCC)nn6)C(C)(C)C5CC[C@]43C)C12` (stereo partly drawn) [Compound 6g, 3,28-O,O’-Di-[(1-ethylacetyl-1H-1,2,3-triazol-4-yl)carbonyl]betulin], the “IC50 ± SD” value in data set [1], in data set [2], in data set [3] and in data set [5] was “Neg” throughout. For the same compound, 97.6 ± 3.3 µM corresponded to half-maximal inhibition in data set [4] (Homo sapiens) (IC50).
